DC50 data for 17 compounds are collected here from patent US10800770B1, “Chroman derivatives having estrogen receptor degradation activity and uses thereof” (ACCUTAR BIOTECHNOLOGY INC., priority 2019, dated 2020).

As usually defined, the DC50 is the concentration giving 50% degradation.

The target of the experiment is T1, ERα (Homo sapiens, UniProt P03372).
T1 construct: endogenous in cells; host or cells: T47D
T1 sequence (P03372 1-595): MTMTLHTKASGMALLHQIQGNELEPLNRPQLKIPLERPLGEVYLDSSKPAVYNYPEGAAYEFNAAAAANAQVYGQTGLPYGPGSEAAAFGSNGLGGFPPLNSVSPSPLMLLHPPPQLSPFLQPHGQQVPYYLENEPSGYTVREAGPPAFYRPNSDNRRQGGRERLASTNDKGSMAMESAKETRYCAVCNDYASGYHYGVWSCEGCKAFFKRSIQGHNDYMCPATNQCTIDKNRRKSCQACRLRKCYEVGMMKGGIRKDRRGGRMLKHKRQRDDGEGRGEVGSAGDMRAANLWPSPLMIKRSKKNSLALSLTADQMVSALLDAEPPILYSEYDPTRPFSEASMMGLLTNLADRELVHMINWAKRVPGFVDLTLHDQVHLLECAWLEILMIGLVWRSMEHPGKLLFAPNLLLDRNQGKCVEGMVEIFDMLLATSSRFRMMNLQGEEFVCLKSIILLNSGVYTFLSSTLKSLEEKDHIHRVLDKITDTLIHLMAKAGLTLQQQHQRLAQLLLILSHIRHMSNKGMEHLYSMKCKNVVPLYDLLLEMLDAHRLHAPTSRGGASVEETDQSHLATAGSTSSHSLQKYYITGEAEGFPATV
As to the kind of experiment: ERα degradative activity in T47D cells (Western blot, 6 hours after administration). It counts as cell-based. The conditions noted are these: T47D cell line, ERα degradation. The protocol:
T47D cells were plated in 24-well plates at 1.5×10^5 cells/well in the RPMI growth medium containing 10% FBS and 1× Penicillin Streptomycin. MCF7 cells were plated in 24-well plates at 1.5×10^5 cells/well in the DMEM growth medium containing 10% FBS and 1× Penicillin Streptomycin. CAMA1 cells were plated in 24-well plates at 2×10^5 cells/well in the RPMI growth medium containing 20% FBS and 1× Penicillin Streptomycin. They were then incubated at 37° C. overnight. The following day, the test compound was administered to the cells by using 1000× compound stock solution prepared in DMSO at various concentrations. After administration of the compound, the cells were then incubated at 37° C. for 6 hours.
Upon completion, the cells were washed with PBS and protein was collected in Laemmli sample buffer (1×; VWR International). Proteins in cell lysate were separated by SDS-PAGE and transferred to Odyssey nitrocellulose membranes (Licor) with Iblot® dry blotting transfer system (ThermoFisher). Nonspecific binding was blocked by incubating membranes with Intercept Blocking Buffer (Licor) for 1 hour at room temperature with gentle shaking. The membranes were then incubated overnight at 4° C. with Primary antibodies rabbit anti-ER (Cell Signaling, 8644) and mouse anti-GAPDH (1:5,000, Santa Cruz Biotechnology, sc-47724) diluted in Intercept Blocking Buffer containing 0.1% Tween 20. After washing 3 times with TBS-T, the membranes were incubated with IRDye® 800CW goat anti-mouse IgG (1:20,000, Licor) or IRDye® 800CW goat anti-rabbit IgG (1:20,000, Licor) for 1 hour. After TBS-T washes, membranes were rinsed in TBS and scanned on Odyssey® CLx Imaging System (Licor). The bands were quantified using Image Studio™ Software (Licor).
(In general: In western blotting, separated proteins are transferred to a membrane and probed.)
`O=C1CCC(N2C(=O)c3ccc(N4CCN(CC5CCN(c6ccc(C7c8ccc(O)cc8OC[C@@H]7c7ccccc7)cc6)CC5)CC4)cc3C2=O)C(=O)N1` (stereo in doubt) [Compound 36, cis-2-(2,6-dioxopiperidin-3-yl)-5-(4-((1-(4-(7-hydroxy-3-phenylchroman-4-yl)phenyl)piperidin-4-yl)methyl)piperazin-1-yl)isoindoline-1,3-dione] registered a DC50 of over 10 nM.
The figure for `COc1cccc([C@H]2COc3cc(O)ccc3[C@H]2c2ccc(N3CCC(CN4CCN(c5cc6c(cc5F)C(=O)N([C@H]5CCC(=O)NC5=O)C6)CC4)CC3)cc2)c1` (relative stereo) [Compound 74, cis-(S)-3-(6-fluoro-5-(4-((1-(4-(7-hydroxy-3-(3-methoxy-phenyl)chroman-4-yl)phenyl)piperidin-4-yl)methyl)piperazin-1-yl)-1-oxoisoindolin-2-yl)piperidine-2,6-dione] is 7.3 nM.
The figure for `O=C1CC[C@H](N2C(=O)c3ccc(N4CCN(CC5CCN(c6ccc([C@@H]7c8ccc(O)cc8OCC7c7ccccc7)cc6F)CC5)CC4)cc3C2=O)C(=O)N1` (stereo in doubt) [Compound 87, cis-2-(2,6-dioxo-piperidin-3-yl)-5-(4-((1-(2-fluoro-4-(7-hydroxy-3-phenylchroman-4-yl)phenyl)piperidin-4-yl)methyl)piperazin-1-yl)isoindoline-1,3-dione] is 12.6 nM; for `O=C1CC[C@H](N2Cc3cc(N4CCN(CC5CCN(c6ccc([C@@H]7c8ccc(O)cc8OC[C@@H]7c7ccccc7)cc6F)CC5)CC4)ccc3C2=O)C(=O)N1` [Compound 86, (S)-3-(5-(4-((1-(2-fluoro-4-((3S,4R)-7-hydroxy-3-phenylchroman-4-yl)phenyl)piperidin-4-yl)methyl)piperazin-1-yl)-1-oxoisoindolin-2-yl)piperidine-2,6-dione] it is 0.5 nM; for `O=C1CC[C@H](N2Cc3cc(N4CCN(CC5CCN(c6ccc([C@@H]7c8ccc(O)cc8OCC7c7ccccc7)cc6F)CC5)CC4)ccc3C2=O)C(=O)N1` (relative stereo) [Compound 85, cis-(S)-3-(5-(4-((1-(2-fluoro-4-(7-hydroxy-3-phenylchroman-4-yl)phenyl)piperidin-4-yl)methyl)piperazin-1-yl)-1-oxoisoindolin-2-yl)piperidine-2,6-dione] it is 3 nM.
The figure for `O=C1CC[C@H](N2Cc3cc(N4CCN(CC5CCN(c6ccc([C@@H]7c8ccc(O)cc8OC[C@@H]7c7ccccc7)cc6)CC5)CC4)c(F)cc3C2=O)C(=O)N1` [Compound 42, (S)-3-(6-fluoro-5-(4-((1-(4-((3S,4R)-7-hydroxy-3-phenylchroman-4-yl)phenyl)piperidin-4-yl)methyl)piperazin-1-yl)-1-oxoisoindolin-2-yl)piperidine-2,6-dione] is 1.1 nM.
`O=C1CC[C@H](N2Cc3cc(N4CCN(CC5CCN(c6ccc([C@@H]7c8ccc(O)cc8OC[C@@H]7c7ccccc7)cc6)CC5)CC4)ccc3C2=O)C(=O)N1` [Compound 33, (S)-3-(5-(4-((1-(4-((3S,4R)-7-hydroxy-3-phenylchroman-4-yl)phenyl)piperidin-4-yl)methyl)piperazin-1-yl)-1-oxoisoindolin-2-yl)piperidine-2,6-dione] displayed a DC50 of 0.3 nM.
The figure for `O=C1CC[C@H](N2Cc3cc(N4CCN(CC5CCN(c6ccc([C@H]7c8ccc(O)cc8OC[C@H]7c7ccccc7)cc6F)CC5)CC4)ccc3C2=O)C(=O)N1` [Compound 45, (S)-3-(5-(4-((1-(2-fluoro-4-((3R,4S)-7-hydroxy-3-phenylchroman-4-yl)phenyl)piperidin-4-yl)methyl)piperazin-1-yl)-1-oxoisoindolin-2-yl)piperidine-2,6-dione] is over 100 nM; for `O=C1CC[C@H](N2Cc3cc(N4CCN(CC5CCN(c6ccc([C@H]7c8ccc(O)cc8OC[C@H]7c7ccccc7)cc6)CC5)CC4)ccc3C2=O)C(=O)N1` [Compound 34, (S)-3-(5-(4-((1-(4-((3R,4S)-7-hydroxy-3-phenylchroman-4-yl)phenyl)piperidin-4-yl)methyl)piperazin-1-yl)-1-oxoisoindolin-2-yl)piperidine-2,6-dione] it is over 100 nM.
The figure for `Cc1cccc([C@H]2COc3cc(O)ccc3C2c2ccc(N3CCC(CN4CCN(c5ccc6c(c5)CN([C@H]5CCC(=O)NC5=O)C6=O)CC4)CC3)c(F)c2)c1` (relative stereo) [Compound 52, cis-(S)-3-(5-(4-((1-(2-fluoro-4-(7-hydroxy-3-(m-tolyl)chroman-4-yl)phenyl)piperidin-4-yl)methyl)piperazin-1-yl)-1-oxoisoindolin-2-yl)piperidine-2,6-dione] is 5.6 nM; for `Cc1cc([C@H]2COc3cc(O)ccc3[C@H]2c2ccc(N3CCC(CN4CCN(c5ccc6c(c5)CN([C@H]5CCC(=O)NC5=O)C6=O)CC4)CC3)c(F)c2)ccc1F` [Compound 60, cis-(S)-3-(5-(4-((1-(2-fluoro-4-(3-(4-fluoro-3-methylphenyl)-7-hydroxychroman-4-yl)phenyl)piperidin-4-yl)methyl)piperazin-1-yl)-1-oxoisoindolin-2-yl)piperidine-2,6-dione] it is 6.5 nM; for `O=C1CC[C@H](N2Cc3cc(N4CCN(CC5CCN(c6ccc(C7c8ccc(O)cc8OC[C@@H]7c7ccccc7)cc6)CC5)CC4)ccc3C2=O)C(=O)N1` (relative stereo) [Compound 32, cis-(S)-3-(5-(4-((1-(4-(7-hydroxy-3-phenylchroman-4-yl)phenyl)piperidin-4-yl)methyl)piperazin-1-yl)-1-oxoisoindolin-2-yl)piperidine-2,6-dione] it is 2.4 nM.
The figure for `COc1ccc(C2COc3cc(O)ccc3[C@H]2c2ccc(N3CCC(CN4CCN(c5ccc6c(c5)CN([C@H]5CCC(=O)NC5=O)C6=O)CC4)CC3)cc2)cc1` (relative stereo) [Compound 89, cis-(S)-3-(5-(4-((1-(4-(7-hydroxy-3-(4-methoxy-phenyl)chroman-4-yl)phenyl)piperidin-4-yl)methyl)piperazin-1-yl)-1-oxoisoindolin-2-yl)piperidine-2,6-dione] is 0.7 nM.
Take `COc1cccc([C@H]2COc3cc(O)ccc3C2c2ccc(N3CCC(CN4CCN(c5ccc6c(c5)CN([C@H]5CCC(=O)NC5=O)C6=O)CC4)CC3)cc2)c1` (relative stereo) [Compound 56, cis-(S)-3-(5-(4-((1-(4-(7-hydroxy-3-(3-methoxy-phenyl)chroman-4-yl)phenyl)piperidin-4-yl)methyl)piperazin-1-yl)-1-oxoisoindolin-2-yl)piperidine-2,6-dione]: the DC50 came to 1.7 nM.
For `O=C1CC[C@H](N2Cc3cc(N4CCN(CC5CCN(c6ccc([C@@H]7c8ccc(O)cc8OC[C@@H]7c7ccccc7)cc6F)CC5)CC4)c(F)cc3C2=O)C(=O)N1` [Compound 41, (S)-3-(6-fluoro-5-(4-((1-(2-fluoro-4-((3S,4R)-7-hydroxy-3-phenylchroman-4-yl)phenyl)piperidin-4-yl)methyl)piperazin-1-yl)-1-oxoisoindolin-2-yl)piperidine-2,6-dione] the value was 4 nM; for `COc1cc([C@H]2COc3cc(O)ccc3[C@H]2c2ccc(N3CCC(CN4CCN(c5ccc6c(c5)CN([C@H]5CCC(=O)NC5=O)C6=O)CC4)CC3)cc2)ccc1F` (relative stereo) [Compound 63, cis-(S)-3-(5-(4-((1-(4-(3-(4-fluoro-3-methoxyphenyl)-7-hydroxychroman-4-yl)phenyl)piperidin-4-yl)methyl)piperazin-1-yl)-1-oxoisoindolin-2-yl)piperidine-2,6-dione], 2.1 nM.
For `O=C1CC[C@H](N2Cc3cc(N4CCN(CC5CCN(c6ccc([C@@H]7c8ccc(O)cc8OCC7c7ccc(F)c(F)c7)cc6F)CC5)CC4)ccc3C2=O)C(=O)N1` (relative stereo) [Compound 84, cis-(S)-3-(5-(4-((1-(4-(3-(3,4-difluorophenyl)-7-hydroxychroman-4-yl)-2-fluoro-phenyl)piperidin-4-yl)methyl)piperazin-1-yl)-1-oxoisoindolin-2-yl)piperidine-2,6-dione] the value was 9.3 nM.
